Conditions: 362.9 K, Liquid, Vibrating tube method

FC(F)=C(F)C(F)(F)F [hexafluoropropene]
Conditions	mass density [kg/m3]
5080.8 kPa	959.79
5112.9 kPa	961.66
5146 kPa	963.53
5179.5 kPa	965.35
5212.8 kPa	967.09
5246.7 kPa	968.92
5279.6 kPa	970.74
5314.8 kPa	972.51
5347.4 kPa	974.13
5381.2 kPa	975.88
5415.7 kPa	977.6
5518.8 kPa	982.72
5553.4 kPa	984.34
5588.2 kPa	985.96
5623.1 kPa	987.64
5657.5 kPa	989.1
5693.5 kPa	990.75
5727.5 kPa	992.15
5764.4 kPa	993.86
5798.2 kPa	995.17
5832.3 kPa	996.63
5864.9 kPa	997.97
5898.1 kPa	999.35
5930.9 kPa	1000.69
5965 kPa	1002.21
6035.1 kPa	1005.02
6069.8 kPa	1006.31
6105.1 kPa	1007.76
6137.3 kPa	1008.98
6172 kPa	1010.25
6204.9 kPa	1011.55
6239.5 kPa	1012.84
6274 kPa	1014.15
6308.5 kPa	1015.34
6343.7 kPa	1016.69
6377.6 kPa	1017.96
6413.1 kPa	1019.11
6447.2 kPa	1020.3
6480.8 kPa	1021.47
6516.3 kPa	1022.68
6550 kPa	1023.83
6584.4 kPa	1025.06
6618.1 kPa	1026.09
6653.8 kPa	1027.34
6686.8 kPa	1028.37
6720.5 kPa	1029.53
6754.6 kPa	1030.75
6789.1 kPa	1031.78
6824.9 kPa	1032.91
6860.3 kPa	1034.08
6893.3 kPa	1035.1
6959.4 kPa	1037.09
6993.3 kPa	1038.11
7029.7 kPa	1039.21
7062.9 kPa	1040.15
7097.9 kPa	1041.26
7134 kPa	1042.28
7168.5 kPa	1043.39
7202.4 kPa	1044.3
7237.6 kPa	1045.38
7273.1 kPa	1046.4
7307.6 kPa	1047.38
7378 kPa	1049.33
7411.6 kPa	1050.3
7482.4 kPa	1052.26
7514.7 kPa	1053.12
7547 kPa	1053.95
7581.8 kPa	1054.97
7615.4 kPa	1055.85
7651.7 kPa	1056.85
7689.7 kPa	1057.93
7725.6 kPa	1058.74
7762.3 kPa	1059.79
7796.7 kPa	1060.54
7833.4 kPa	1061.54
7869.9 kPa	1062.44
7906.3 kPa	1063.38
7940.8 kPa	1064.3
7976.7 kPa	1065.12
8010.3 kPa	1065.98
8045.2 kPa	1066.87
8081.6 kPa	1067.62
8115 kPa	1068.6
8149.9 kPa	1069.37
8185.9 kPa	1070.21
8223.3 kPa	1071.09
8281.3 kPa	1072.48
8320.9 kPa	1073.52
8358.3 kPa	1074.27
8396.8 kPa	1075.12
8431.8 kPa	1075.97
8468.6 kPa	1076.79
8505.7 kPa	1077.66
8541.8 kPa	1078.5
8577.3 kPa	1079.34
8611.7 kPa	1080.05
8649.3 kPa	1080.92
8689.4 kPa	1081.74
8724.6 kPa	1082.52
8800.2 kPa	1084.14
8834.9 kPa	1084.87
8868.8 kPa	1085.56
8902.9 kPa	1086.27
8937.5 kPa	1087.05
8971.8 kPa	1087.76
9005.2 kPa	1088.42
9039.7 kPa	1089.26
9073.1 kPa	1089.94
9106.5 kPa	1090.69
9140.8 kPa	1091.37
9173.4 kPa	1092.03
9205.8 kPa	1092.74
9239.9 kPa	1093.42
9274.7 kPa	1094.03
9308.6 kPa	1094.75
9341.7 kPa	1095.45
9377.4 kPa	1096.15
9410.8 kPa	1096.73
9445.5 kPa	1097.46
9479.4 kPa	1098.06
9548.7 kPa	1099.5
9582.4 kPa	1100.15
9618.6 kPa	1100.84
9652.6 kPa	1101.51
9687.1 kPa	1102.18
9721.9 kPa	1102.81
9756.1 kPa	1103.39
9789.2 kPa	1104.04
9822.6 kPa	1104.65
9858.4 kPa	1105.3
9893.4 kPa	1106.05
9929.5 kPa	1106.67
9963.2 kPa	1107.25
9996.5 kPa	1107.93

From the NIST ThermoML archive (doi:10.1021/je900596d)
